In article PMC7875539 (Science Advances, 2021):

Key:
Conditions in all cases: 100 mM KCl, 5 mM MgCl2, 20 mM Hepes pH 7.5, 25 °C; CBS domain nucleotide site
[1] = molecular target: TpCorC CBS domain (Thermus parvatiensis, UniProt A0A109QFA5, T336I)
[2] = molecular target: TpCorC CBS domain (Thermus parvatiensis, UniProt A0A109QFA5)
[3] = molecular target: TpCorC CBS domain (Thermus parvatiensis, UniProt A0A109QFA5, Y255A)
TpCorC CBS domain (Thermus parvatiensis, UniProt A0A109QFA5, Y255A), sequence (A0A109QFA5 202-361 Y255A limits assumed): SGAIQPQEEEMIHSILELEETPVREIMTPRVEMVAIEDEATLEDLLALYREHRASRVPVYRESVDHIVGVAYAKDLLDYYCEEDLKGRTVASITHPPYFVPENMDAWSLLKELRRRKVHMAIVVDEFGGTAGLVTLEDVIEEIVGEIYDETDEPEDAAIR

TpCorC CBS domain (Thermus parvatiensis, UniProt A0A109QFA5), sequence (A0A109QFA5 202-361 limits assumed): as the sequence (A0A109QFA5 202-361 Y255A limits assumed) above, with A54Y counted along it
TpCorC CBS domain (Thermus parvatiensis, UniProt A0A109QFA5, T336I), sequence (A0A109QFA5 202-361 T336I limits assumed): as the sequence (A0A109QFA5 202-361 Y255A limits assumed) above, with A54Y, T135I counted along it

`Nc1ncnc2c1ncn2[C@@H]1O[C@H](COP(=O)(O)OP(=O)(O)OP(=O)(O)O)[C@@H](O)[C@H]1O` [ATP] showed a Kd [1] of 9.4 µM, a Kd [2] of 460 nM and a Kd [3] of 2800 nM.
